ChEMBL document CHEMBL1201861, “Genomics of Drug Sensitity in Cancer screening data, Wellcome Trust Sanger Institute”

What was measured:
Experiment in all cases: cells
CCRF-CEM = format: functional, cell-based; conditions: Homo sapiens;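 further: inhibition of CCRF-CEM cell growth, measured by a cell viability assay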
Description: SANGER: Inhibition of human CCRF-CEM cell growth in a cell viability assay.

CGTH-W-1 = format: functional, cell-based, Homo sapiens; conditions: Homo sapiens, CGTH-W-1;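 further: growth inhibition of human CGTH-W-1 cells measured by cell viability assay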
Description: SANGER: Inhibition of human CGTH-W-1 cell growth in a cell viability assay.

NCI-H650 = format: functional, cell-based, Homo sapiens; conditions: Homo sapiens, NCI-H650;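 further: growth inhibition of NCI-H650 cells, read out by a viability assay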
Description: SANGER: Inhibition of human NCI-H650 cell growth in a cell viability assay.

TE-5 = format: functional, cell-based, Homo sapiens; conditions: Homo sapiens, TE-5;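 further: inhibition of cell growth, read out by a cell viability assay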
Description: SANGER: Inhibition of human TE-5 cell growth in a cell viability assay.

ChaGo-K-1 = format: functional, cell-based; conditions: Homo sapiens;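 further: growth inhibition of ChaGo-K-1 cells, read out with a cell viability assay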
Description: SANGER: Inhibition of human ChaGo-K-1 cell growth in a cell viability assay.

BV-173 = format: functional, cell-based; conditions: Homo sapiens
Description: SANGER: Inhibition of human BV-173 cell growth in a cell viability assay.

HDLM-2 = format: functional, cell-based; conditions: Homo sapiens;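 further: cell viability assay measuring suppression of HDLM-2 proliferation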
Description: SANGER: Inhibition of human HDLM-2 cell growth in a cell viability assay.

HCC38 = format: functional, cell-based, Homo sapiens; conditions: Homo sapiens, HCC38;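 further: cell viability assay on the human HCC38 cell line, with IC50 marking the concentration that inhibits cell growth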
Description: SANGER: Inhibition of human HCC38 cell growth in a cell viability assay.

KURAMOCHI = format: functional, cell-based; conditions: Homo sapiens;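 further: growth inhibition of KURAMOCHI cells, read out with a cell viability assay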
Description: SANGER: Inhibition of human KURAMOCHI cell growth in a cell viability assay.

FTC-133 = format: functional, cell-based, Homo sapiens; conditions: Homo sapiens, FTC-133
DJM-1 = format: functional, cell-based, Homo sapiens; conditions: Homo sapiens, DJM-1;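 further: growth inhibition of human DJM-1 cells, read out by a cell viability assay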
Description: SANGER: Inhibition of human DJM-1 cell growth in a cell viability assay.

NCI-H1395 = format: functional, cell-based, Homo sapiens; conditions: Homo sapiens, NCI-H1395;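 further: cell viability assay read-out quantifying reduced proliferation of human NCI-H1395 cells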
Description: SANGER: Inhibition of human NCI-H1395 cell growth in a cell viability assay.

OVCAR-8 = format: functional, cell-based, Homo sapiens; conditions: Homo sapiens, OVCAR-8;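 further: growth inhibition of human OVCAR-8 cells, read out by a cell viability assay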
Description: SANGER: Inhibition of human OVCAR-8 cell growth in a cell viability assay.

SK-N-AS = format: functional, cell-based, Homo sapiens; conditions: Homo sapiens, SK-N-AS;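 further: growth inhibition of human SK-N-AS cells, measured with a cell viability assay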
Description: SANGER: Inhibition of human SK-N-AS cell growth in a cell viability assay.

QIMR-WIL = format: functional, cell-based; conditions: Homo sapiens;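 further: growth inhibition of QIMR-WIL cells, read out with a cell viability assay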
Description: SANGER: Inhibition of human QIMR-WIL cell growth in a cell viability assay.

DSH1 = format: functional, cell-based, Homo sapiens; conditions: Homo sapiens, DSH1;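 further: growth inhibition of human DSH1 cells, measured with a cell viability readout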
Description: SANGER: Inhibition of human DSH1 cell growth in a cell viability assay.

COLO-800 = format: functional, cell-based, Homo sapiens; conditions: Homo sapiens, COLO-800;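 further: growth inhibition of COLO-800 cells, read out with a cell viability assay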
Description: SANGER: Inhibition of human COLO-800 cell growth in a cell viability assay.

HTC-C3 = format: functional, cell-based, Homo sapiens; conditions: Homo sapiens, HTC-C3;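 further: inhibition of cell growth, read out with a cell viability assay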
Description: SANGER: Inhibition of human HTC-C3 cell growth in a cell viability assay.

Detroit 562 = format: functional, cell-based, Homo sapiens; conditions: Homo sapiens, Detroit 562;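 further: growth inhibition of human Detroit 562 cells, read out by a cell viability assay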
Description: SANGER: Inhibition of human Detroit562 cell growth in a cell viability assay.

HT-29 = format: functional, cell-based, Homo sapiens; conditions: Homo sapiens, HT-29;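 further: growth inhibition of human HT-29 cells, read out by a cell viability assay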
Description: SANGER: Inhibition of human HT-29 cell growth in a cell viability assay.

NEC8 = format: functional, cell-based, Homo sapiens; conditions: Homo sapiens, NEC8;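 further: growth inhibition of human NEC8 cells, read out by a cell viability assay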
Description: SANGER: Inhibition of human NEC8 cell growth in a cell viability assay.

SK-N-FI = format: functional, cell-based, Homo sapiens; conditions: Homo sapiens, SK-N-FI;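 further: cell viability assay measuring growth inhibition of human SK-N-FI cells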
Description: SANGER: Inhibition of human SK-N-FI cell growth in a cell viability assay.

HuP-T4 = format: functional, cell-based, Homo sapiens; conditions: Homo sapiens, HuP-T4;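 further: cell viability assay measuring how much HuP-T4 cell growth is inhibited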
Description: SANGER: Inhibition of human HuP-T4 cell growth in a cell viability assay.

NKM-1 = format: functional, cell-based; conditions: Homo sapiens;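 further: growth inhibition of NKM-1 cells, read out with a cell viability assay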
Description: SANGER: Inhibition of human NKM-1 cell growth in a cell viability assay.

HAL-01 = format: functional, cell-based; conditions: Homo sapiens;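 further: growth inhibition of human HAL-01 cells, read out with a cell viability assay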
Description: SANGER: Inhibition of human HAL-01 cell growth in a cell viability assay.

COLO-679 = format: functional, cell-based, Homo sapiens; conditions: Homo sapiens, COLO-679
Description: SANGER: Inhibition of human COLO-679 cell growth in a cell viability assay.

LCLC-103H cell line = format: functional, cell-based, Homo sapiens; conditions: Homo sapiens, LCLC-103H
Description: SANGER: Inhibition of human LCLC-103H cell growth in a cell viability assay.

OS-RC-2 = format: functional, cell-based, Homo sapiens; conditions: Homo sapiens, OS-RC-2;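 further: growth inhibition of human OS-RC-2 cells, measured by a cell viability assay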
Description: SANGER: Inhibition of human OS-RC-2 cell growth in a cell viability assay.

COLO-680N = format: functional, cell-based, Homo sapiens; conditions: Homo sapiens, COLO-680N;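 further: cell viability assay used to measure inhibition of COLO-680N cell growth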
Description: SANGER: Inhibition of human COLO-680N cell growth in a cell viability assay.

NCI-H2122 = format: functional, cell-based, Homo sapiens; conditions: Homo sapiens, NCI-H2122;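 further: growth inhibition of the cells, read out with a cell viability assay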
Description: SANGER: Inhibition of human NCI-H2122 cell growth in a cell viability assay.

OMC-1 = format: functional, cell-based, Homo sapiens; conditions: Homo sapiens, OMC-1;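 further: growth inhibition of the OMC-1 cell line, measured by a cell viability assay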
Description: SANGER: Inhibition of human OMC-1 cell growth in a cell viability assay.

CTV-1 = format: functional, cell-based; conditions: Homo sapiens;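 further: growth inhibition of the cell line, read out with a cell viability assay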
Description: SANGER: Inhibition of human CTV-1 cell growth in a cell viability assay.

EW-1 = format: functional, cell-based, Homo sapiens; conditions: Homo sapiens, EW-1;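 further: growth inhibition of the human EW-1 cell line, read out by a cell viability assay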
Description: SANGER: Inhibition of human EW-1 cell growth in a cell viability assay.

COLO-741 = format: functional, cell-based, Homo sapiens; conditions: Homo sapiens, COLO-741
Description: SANGER: Inhibition of human COLO-741 cell growth in a cell viability assay.

LN-405 = format: functional, cell-based, Homo sapiens; conditions: Homo sapiens, LN-405
Description: SANGER: Inhibition of human LN-405 cell growth in a cell viability assay.

IST-SL1 = format: functional, cell-based, Homo sapiens; conditions: Homo sapiens, IST-SL1;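 further: growth inhibition of human IST-SL1 cells, read out with a cell viability assay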
Description: SANGER: Inhibition of human IST-SL1 cell growth in a cell viability assay.

H4 = format: functional, cell-based; conditions: Homo sapiens
Description: SANGER: Inhibition of human H4 cell growth in a cell viability assay.

ME-180 = format: functional, cell-based; conditions: Homo sapiens;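 further: cell viability assay measuring growth inhibition of ME-180 cells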
Description: SANGER: Inhibition of human ME-180 cell growth in a cell viability assay.

HOP-92 = format: functional, cell-based, Homo sapiens; conditions: Homo sapiens, HOP-92;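 further: cell viability readout, with IC50 reflecting inhibition of HOP-92 cell growth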
Description: SANGER: Inhibition of human HOP-92 cell growth in a cell viability assay.

COLO-684 = format: functional, cell-based; conditions: Homo sapiens
Description: SANGER: Inhibition of human COLO-684 cell growth in a cell viability assay.

HCC 2998 = format: functional, cell-based, Homo sapiens; conditions: Homo sapiens, HCC 2998;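 further: growth inhibition of human HCC2998 cells, measured with a cell viability read-out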
Description: SANGER: Inhibition of human HCC2998 cell growth in a cell viability assay.

KY821 = format: functional, cell-based; conditions: Homo sapiens;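 further: growth inhibition of human KY821 cells, read out by a cell viability assay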
Description: SANGER: Inhibition of human KY821 cell growth in a cell viability assay.

NB69 = format: functional, cell-based, Homo sapiens; conditions: Homo sapiens, NB69;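 further: growth inhibition of NB69 cells, determined by a cell viability assay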
Description: SANGER: Inhibition of human NB69 cell growth in a cell viability assay.

no-11 = format: functional, cell-based, Homo sapiens; conditions: Homo sapiens;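 further: growth inhibition of human NO-11 cells, read out with a cell viability assay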
Description: SANGER: Inhibition of human no-11 cell growth in a cell viability assay.

RMG-I = format: functional, cell-based, Homo sapiens; conditions: Homo sapiens, RMG-I;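 further: growth inhibition of human RMG-I cells, read out with a cell viability assay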
Description: SANGER: Inhibition of human RMG-I cell growth in a cell viability assay.

GMS-10 = format: functional, cell-based, Homo sapiens; conditions: Homo sapiens, GMS-10;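 further: growth inhibition of GMS-10 cells, read out as cell viability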
Description: SANGER: Inhibition of human GMS-10 cell growth in a cell viability assay.

MDA-MB-361 = format: functional, cell-based, Homo sapiens; conditions: Homo sapiens, MDA-MB-361
EFO-21 = format: functional, cell-based, Homo sapiens; conditions: Homo sapiens, EFO-21;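 further: growth inhibition of EFO-21 cells measured with a viability assay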
Description: SANGER: Inhibition of human EFO-21 cell growth in a cell viability assay.

G-401 = format: functional, cell-based, Homo sapiens; conditions: Homo sapiens, G-401
Description: SANGER: Inhibition of human G-401 cell growth in a cell viability assay.

EOL1 = format: functional, cell-based; conditions: Homo sapiens;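 further: growth inhibition of EoL-1 cells, read out by a cell viability assay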
Description: SANGER: Inhibition of human EoL-1-cell cell growth in a cell viability assay.

SNU1 = format: functional, cell-based; conditions: Homo sapiens;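 further: growth inhibition of human NCI-SNU-1 cells, measured with a cell viability assay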
Description: SANGER: Inhibition of human NCI-SNU-1 cell growth in a cell viability assay.

TGW = format: functional, cell-based; conditions: Homo sapiens;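 further: growth inhibition of human TGW cells, read out with a cell viability assay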
Description: SANGER: Inhibition of human TGW cell growth in a cell viability assay.

O=C1N=C(NCc2cccs2)S/C1=C\c1ccc2ncccc2c1
IC50 (CCRF-CEM): > 5 µM | IC50 (CGTH-W-1): > 5 µM | IC50 (NCI-H650): > 5 µM | IC50 (TE-5): > 5 µM | IC50 (ChaGo-K-1): > 5 µM | IC50 (BV-173): > 5 µM | IC50 (HDLM-2): > 5 µM | IC50 (HCC38): > 5 µM | IC50 (KURAMOCHI): > 5 µM | IC50 (FTC-133): > 5 µM | IC50 (DJM-1): > 5 µM | IC50 (NCI-H1395): > 5 µM | IC50 (OVCAR-8): > 5 µM | IC50 (SK-N-AS): > 5 µM | IC50 (QIMR-WIL): > 5 µM | IC50 (DSH1): > 5 µM | IC50 (COLO-800): > 5 µM | IC50 (HTC-C3): > 5 µM | IC50 (Detroit 562): > 5 µM | IC50 (HT-29): > 5 µM | IC50 (NEC8): 4.47 µM | IC50 (SK-N-FI): > 5 µM | IC50 (HuP-T4): > 5 µM | IC50 (NKM-1): > 5 µM | IC50 (HAL-01): > 5 µM | IC50 (COLO-679): > 5 µM | IC50 (LCLC-103H cell line): > 5 µM | IC50 (OS-RC-2): > 5 µM | IC50 (COLO-680N): > 5 µM | IC50 (NCI-H2122): > 5 µM | IC50 (OMC-1): > 5 µM | IC50 (CTV-1): > 5 µM | IC50 (EW-1): > 5 µM | IC50 (COLO-741): > 5 µM | IC50 (LN-405): > 5 µM | IC50 (IST-SL1): > 5 µM | IC50 (H4): 1.16 µM | IC50 (ME-180): > 5 µM | IC50 (HOP-92): > 5 µM | IC50 (COLO-684): > 5 µM | IC50 (HCC 2998): > 5 µM | IC50 (KY821): > 5 µM | IC50 (NB69): > 5 µM | IC50 (no-11): > 5 µM | IC50 (RMG-I): > 5 µM | IC50 (GMS-10): > 5 µM | IC50 (MDA-MB-361): > 5 µM | IC50 (EFO-21): > 5 µM | IC50 (G-401): > 5 µM | IC50 (EOL1): > 5 µM | IC50 (SNU1): 0.731 µM | IC50 (TGW): > 5 µM

CCOc1nc(NC(=O)Cc2cc(OC)ccc2OC)cc(N)c1C#N
IC50 (CCRF-CEM): > 10 µM | IC50 (CGTH-W-1): > 10 µM | IC50 (NCI-H650): > 10 µM | IC50 (TE-5): > 10 µM | IC50 (ChaGo-K-1): > 10 µM | IC50 (BV-173): > 10 µM | IC50 (HDLM-2): > 10 µM | IC50 (HCC38): > 10 µM | IC50 (KURAMOCHI): > 10 µM | IC50 (FTC-133): > 10 µM | IC50 (DJM-1): > 10 µM | IC50 (NCI-H1395): > 10 µM | IC50 (OVCAR-8): > 10 µM | IC50 (SK-N-AS): > 10 µM | IC50 (QIMR-WIL): > 10 µM | IC50 (DSH1): > 10 µM | IC50 (COLO-800): > 10 µM | IC50 (HTC-C3): > 10 µM | IC50 (Detroit 562): > 10 µM | IC50 (HT-29): > 10 µM | IC50 (NEC8): > 10 µM | IC50 (SK-N-FI): > 10 µM | IC50 (HuP-T4): > 10 µM | IC50 (NKM-1): > 10 µM | IC50 (HAL-01): > 10 µM | IC50 (COLO-679): > 10 µM | IC50 (LCLC-103H cell line): > 10 µM | IC50 (OS-RC-2): > 10 µM | IC50 (COLO-680N): > 10 µM | IC50 (NCI-H2122): > 10 µM | IC50 (OMC-1): > 10 µM | IC50 (CTV-1): > 10 µM | IC50 (EW-1): > 10 µM | IC50 (COLO-741): > 10 µM | IC50 (LN-405): > 10 µM | IC50 (IST-SL1): > 10 µM | IC50 (H4): > 10 µM | IC50 (ME-180): > 10 µM | IC50 (HOP-92): > 10 µM | IC50 (COLO-684): > 10 µM | IC50 (HCC 2998): > 10 µM | IC50 (KY821): > 10 µM | IC50 (NB69): > 10 µM | IC50 (no-11): > 10 µM | IC50 (RMG-I): > 10 µM | IC50 (GMS-10): > 10 µM | IC50 (MDA-MB-361): > 10 µM | IC50 (EFO-21): > 10 µM | IC50 (G-401): > 10 µM | IC50 (EOL1): > 10 µM | IC50 (SNU1): > 10 µM | IC50 (TGW): > 10 µM
